Experimental data taken from paper PMC3265452 (PLoS Neglected Tropical Diseases, 2012).
Where a name gives a salt, the structure may show the parent alone.

Molecular target: AaDOP2 (Aedes aegypti, UniProt H6D5H2)
Experiment: AaDOP2 antagonist screen of the LOPAC1280 library (HEK-CRELuc-Aadop2 cells, luminescence)
Assay type: cell-based
Details: not given

AaDOP2, sequence (H6D5H2 1-476): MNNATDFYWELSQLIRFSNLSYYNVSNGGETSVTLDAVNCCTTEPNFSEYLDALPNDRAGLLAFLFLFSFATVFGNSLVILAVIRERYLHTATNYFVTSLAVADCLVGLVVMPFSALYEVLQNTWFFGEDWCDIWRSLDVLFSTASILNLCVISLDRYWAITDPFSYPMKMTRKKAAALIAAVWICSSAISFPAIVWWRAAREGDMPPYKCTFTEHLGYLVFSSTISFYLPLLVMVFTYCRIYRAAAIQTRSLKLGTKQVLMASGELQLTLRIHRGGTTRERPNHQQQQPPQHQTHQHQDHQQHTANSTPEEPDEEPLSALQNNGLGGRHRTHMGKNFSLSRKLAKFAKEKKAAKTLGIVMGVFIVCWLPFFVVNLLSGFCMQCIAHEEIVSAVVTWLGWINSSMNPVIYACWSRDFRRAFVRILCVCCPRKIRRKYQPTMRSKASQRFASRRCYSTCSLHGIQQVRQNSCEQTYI

Q: With `Nc1ccncc1` [Compound 12, 4-Aminopyridine] as the compound, how does the “Compound effect (percent receptor signaling in presence of test compound, relative lux units relative to the SCH23390 control)” value read?
A: 110

Q: For `CN1[C@@H]2CC[C@H]1C[C@@H](OC(=O)C(CO)c1ccccc1)C2` (stereo partly shown) [Compound 13, Atropine sulfate], which “Compound effect (percent receptor signaling in presence of test compound, relative lux units relative to the SCH23390 control)” value is on record?
A: 78

Q: `C[N+]1(C)[C@@H]2CC[C@H]1C[C@@H](OC(=O)C(CO)c1ccccc1)C2` (stereo partly shown) [Compound 14, Atropine methyl nitrate] was tested. Which “Compound effect (percent receptor signaling in presence of test compound, relative lux units relative to the SCH23390 control)” value did it give?
A: 112

Q: How did the “Compound effect (percent receptor signaling in presence of test compound, relative lux units relative to the SCH23390 control)” value turn out when `NC(N)=NCCCCN=C(N)N` [Compound 15, Arcaine sulfate] was run?
A: 122

Q: How did the “Compound effect (percent receptor signaling in presence of test compound, relative lux units relative to the SCH23390 control)” value turn out when `Cl.NC1(C(=O)O)CC1` [Compound 16, 1-Aminocyclopropanecarboxylic acid hydrochloride] was run?
A: 104

Q: For `Cl.NCCCCNS(=O)(=O)c1ccc2c(Cl)cccc2c1` [Compound 18, N-(4-Aminobutyl)-5-chloro-2-naphthalenesulfonamide hydrochloride], which “Compound effect (percent receptor signaling in presence of test compound, relative lux units relative to the SCH23390 control)” value is on record?
A: 97

Q: `O=C(O)[C@@H]1CCN1` [Compound 19, L-azetidine-2-carboxylic acid] was tested. Which “Compound effect (percent receptor signaling in presence of test compound, relative lux units relative to the SCH23390 control)” value did it give?
A: 115

Q: How did the “Compound effect (percent receptor signaling in presence of test compound, relative lux units relative to the SCH23390 control)” value turn out when `NC(=O)c1cccc(N)c1` [Compound 21, 3-aminobenzamide] was run?
A: 96

Q: For `COC(=O)[C@H]1[C@H]2C[C@@H]3c4[nH]c5cc(OC)ccc5c4CCN3C[C@H]2C[C@@H](OC(=O)c2cc(OC)c(OC)c(OC)c2)[C@@H]1OC` [Compound 24, Reserpine], which “Compound effect (percent receptor signaling in presence of test compound, relative lux units relative to the SCH23390 control)” value is on record?
A: 113

Q: `NC12CC3CC(CC(C3)C1)C2` [Compound 25, Amantadine hydrochloride] was tested. Which “Compound effect (percent receptor signaling in presence of test compound, relative lux units relative to the SCH23390 control)” value did it give?
A: 84

Q: For `Cn1c(=O)c2[nH]cnc2n(C)c1=O.Cn1c(=O)c2[nH]cnc2n(C)c1=O.NCCN` [Compound 26, Aminophylline ethylenediamine], which “Compound effect (percent receptor signaling in presence of test compound, relative lux units relative to the SCH23390 control)” value is on record?
A: 129

Q: How did the “Compound effect (percent receptor signaling in presence of test compound, relative lux units relative to the SCH23390 control)” value turn out when `Nc1nc(N)c2nc(CNc3ccc(C(=O)N[C@@H](CCC(=O)O)C(=O)O)cc3)cnc2n1` [Compound 28, Aminopterin] was run?
A: 112

Q: Which “Compound effect (percent receptor signaling in presence of test compound, relative lux units relative to the SCH23390 control)” value does the source give for `CC(=O)NCCc1c[nH]c2ccc(O)cc12` [Compound 29, N-Acetyl-5-hydroxytryptamine] here?
A: 110

Q: Which “Compound effect (percent receptor signaling in presence of test compound, relative lux units relative to the SCH23390 control)” value does the source give for `O=C(O)C1=CC(=C(c2ccc(O)c(C(=O)O)c2)c2ccc(O)c(C(=O)O)c2)C=CC1=O` [Compound 30, Aurintricarboxylic acid] here?
A: 132

Q: How did the “Compound effect (percent receptor signaling in presence of test compound, relative lux units relative to the SCH23390 control)” value turn out when `CCCCC/C=C\C/C=C\C/C=C\C/C=C\CCCC(=O)NCC(=O)O` [Compound 32, N-arachidonylglycine] was run?
A: 116

Q: How did the “Compound effect (percent receptor signaling in presence of test compound, relative lux units relative to the SCH23390 control)” value turn out when `NCCCC(=O)O` [Compound 33, GABA] was run?
A: 102

Q: Which “Compound effect (percent receptor signaling in presence of test compound, relative lux units relative to the SCH23390 control)” value does the source give for `Cc1cn([C@H]2C[C@H](N=[N+]=[N-])[C@@H](CO)O2)c(=O)[nH]c1=O` [Compound 34, 3'-Azido-3'-deoxythymidine] here?
A: 114

Q: How did the “Compound effect (percent receptor signaling in presence of test compound, relative lux units relative to the SCH23390 control)” value turn out when `CC(=O)OC(C)C[N+](C)(C)C.[Cl-]` (stereo not drawn) [Compound 35, Acetyl-beta-methylcholine chloride] was run?
A: 127

Q: Which “Compound effect (percent receptor signaling in presence of test compound, relative lux units relative to the SCH23390 control)” value does the source give for `Nc1ncn([C@@H]2O[C@H](CO)[C@@H](O)[C@H]2O)c(=O)n1` [Compound 36, 5-azacytidine] here?
A: 103

Q: How did the “Compound effect (percent receptor signaling in presence of test compound, relative lux units relative to the SCH23390 control)” value turn out when `CCN(c1nc(N)c(C(=O)NC(=N)N)nc1Cl)C(C)C` [Compound 37, 5-(N-Ethyl-N-isopropyl)amiloride] was run?
A: 75

Q: Which “Compound effect (percent receptor signaling in presence of test compound, relative lux units relative to the SCH23390 control)” value does the source give for `N#CCCN.N#CCCN.O=C(O)/C=C/C(=O)O` [Compound 38, 3-Aminopropionitrile fumarate] here?
A: 100

Q: How did the “Compound effect (percent receptor signaling in presence of test compound, relative lux units relative to the SCH23390 control)” value turn out when `O=c1cc(-c2ccc(O)cc2)oc2cc(O)cc(O)c12` [Compound 39, Apigenin] was run?
A: 21

Q: Which “Compound effect (percent receptor signaling in presence of test compound, relative lux units relative to the SCH23390 control)” value does the source give for `Cl.NC1C=CC=C(C(=O)O)C1` (stereo not shown) [Compound 41, Gabaculine hydrochloride] here?
A: 106

Q: How did the “Compound effect (percent receptor signaling in presence of test compound, relative lux units relative to the SCH23390 control)” value turn out when `CC1=C(C)C(=O)C(CCCCC#CCCCC#CCO)=C(C)C1=O` [Compound 43, AA-861] was run?
A: 69

Q: For `Cl.Nc1c2c(nc3ccccc13)CCCC2` [Compound 44, 9-Amino-1,2,3,4-tetrahydroacridine hydrochloride], which “Compound effect (percent receptor signaling in presence of test compound, relative lux units relative to the SCH23390 control)” value is on record?
A: 206

Q: With `O=C(O)CCC/C=C\C[C@@H]1[C@@H](/C=C/[C@H](O)C2Cc3ccccc3C2)[C@@H](F)C[C@@H]1O` [Compound 45, AL-8810] as the compound, how does the “Compound effect (percent receptor signaling in presence of test compound, relative lux units relative to the SCH23390 control)” value read?
A: 102

Q: For `Nn1nnc2ccccc21` [Compound 46, 1-Aminobenzotriazole], which “Compound effect (percent receptor signaling in presence of test compound, relative lux units relative to the SCH23390 control)” value is on record?
A: 141

Q: How did the “Compound effect (percent receptor signaling in presence of test compound, relative lux units relative to the SCH23390 control)” value turn out when `CN1CCc2cccc3c2[C@H]1Cc1ccc(O)c(O)c1-3` [Compound 48, Apomorphine hydrochloride hemihydrate] was run?
A: 54

Q: `CN(C)c1nc(N)c(C(=O)NC(=N)N)nc1Cl` [Compound 50, 5-(N,N-Dimethyl)amiloride hydrochloride] was tested. Which “Compound effect (percent receptor signaling in presence of test compound, relative lux units relative to the SCH23390 control)” value did it give?
A: 108

Q: With `Cn1cnc([N+](=O)[O-])c1Sc1ncnc2nc[nH]c12` [Compound 51, Azathioprine] as the compound, how does the “Compound effect (percent receptor signaling in presence of test compound, relative lux units relative to the SCH23390 control)” value read?
A: 103

Q: For `Nc1nc2c(ncn2COCCO)c(=O)[nH]1` [Compound 52, Acyclovir], which “Compound effect (percent receptor signaling in presence of test compound, relative lux units relative to the SCH23390 control)” value is on record?
A: 90

Q: Which “Compound effect (percent receptor signaling in presence of test compound, relative lux units relative to the SCH23390 control)” value does the source give for `CN(C)CCCO[C@@H]1[C@H]2OC(C)(C)O[C@H]2O[C@@H]1[C@H](O)CO` [Compound 53, Amiprilose hydrochloride] here?
A: 99

Q: `O=C1Cc2c([nH]c3ccc([N+](=O)[O-])cc23)-c2ccccc2N1` [Compound 54, Alsterpaullone] was tested. Which “Compound effect (percent receptor signaling in presence of test compound, relative lux units relative to the SCH23390 control)” value did it give?
A: 92

Q: How did the “Compound effect (percent receptor signaling in presence of test compound, relative lux units relative to the SCH23390 control)” value turn out when `N=C(N)NCCC[C@H](N)C(=O)O` [Compound 56, L-Arginine] was run?
A: 94

Q: Which “Compound effect (percent receptor signaling in presence of test compound, relative lux units relative to the SCH23390 control)” value does the source give for `CC(=O)N[C@@H](Cc1c[nH]c2ccccc12)C(=O)OCc1cc(C(F)(F)F)cc(C(F)(F)F)c1` [Compound 59, L-732,138] here?
A: 100

Q: How did the “Compound effect (percent receptor signaling in presence of test compound, relative lux units relative to the SCH23390 control)” value turn out when `CC(=O)Oc1ccccc1C(=O)O` [Compound 60, Acetylsalicylic acid] was run?
A: 87

Q: With `CC(C)CN(C)c1nc(N)c(C(=O)N=C(N)N)nc1Cl` [Compound 61, 5-(N-Methyl-N-isobutyl)amiloride] as the compound, how does the “Compound effect (percent receptor signaling in presence of test compound, relative lux units relative to the SCH23390 control)” value read?
A: 72

Q: Which “Compound effect (percent receptor signaling in presence of test compound, relative lux units relative to the SCH23390 control)” value does the source give for `CC(=O)SCC[N+](C)(C)C.[Cl-]` [Compound 62, Acetylthiocholine chloride] here?
A: 122

Q: With `C[C@]12CCC(=O)C(O)=C1CC[C@@H]1[C@@H]2CC[C@]2(C)C(=O)CC[C@@H]12` [Compound 63, 4-Androsten-4-ol-3,17-dione] as the compound, how does the “Compound effect (percent receptor signaling in presence of test compound, relative lux units relative to the SCH23390 control)” value read?
A: 107

Q: For `Br.Br.N=C(N)SCCN` [Compound 64, 2-(2-Aminoethyl)isothiourea dihydrobromide], which “Compound effect (percent receptor signaling in presence of test compound, relative lux units relative to the SCH23390 control)” value is on record?
A: 104

Same assay, conditions: 10 µM compound, 300 nM dopamine, 2 hr; hit = compound effect <20

Q: How did the “Compound effect (percent receptor signaling in presence of test compound, relative lux units relative to the SCH23390 control)” value turn out when `CCN(CC)CCCCCCCCOC(=O)c1cc(OC)c(OC)c(OC)c1.Cl` [Compound 11, TMB-8 hydrochloride] was run?
A: 98%

Q: `CC(N)=O` [Compound 17, Acetamide] was tested. Which “Compound effect (percent receptor signaling in presence of test compound, relative lux units relative to the SCH23390 control)” value did it give?
A: 108%

Q: `Cl.Nc1cc(Cl)c(N=C2NCCN2)c(Cl)c1` [Compound 20, p-Aminoclonidine hydrochloride] was tested. Which “Compound effect (percent receptor signaling in presence of test compound, relative lux units relative to the SCH23390 control)” value did it give?
A: 79%

Q: `Nc1ccc2c3c(cccc13)C(=O)NC2=O` [Compound 23, 4-Amino-1,8-naphthalimide] was tested. Which “Compound effect (percent receptor signaling in presence of test compound, relative lux units relative to the SCH23390 control)” value did it give?
A: 104%

Q: For `[N-]=[N+]=Nc1ccc(C(=O)CSC[C@H](NC(=O)CC[C@H](N)C(=O)O)C(=O)NCC(=O)O)cc1` [Compound 27, S-(p-Azidophenacyl)glutathione], which “Compound effect (percent receptor signaling in presence of test compound, relative lux units relative to the SCH23390 control)” value is on record?
A: 105%

Q: Which “Compound effect (percent receptor signaling in presence of test compound, relative lux units relative to the SCH23390 control)” value does the source give for `Cl.NCCCCCCNS(=O)(=O)c1cccc2c(Cl)cccc12` [Compound 40, W-7 hydrochloride] here?
A: 87%

Q: Which “Compound effect (percent receptor signaling in presence of test compound, relative lux units relative to the SCH23390 control)” value does the source give for `NCCCS(=O)(=O)O.[Na]` [Compound 47, 3-Amino-1-propanesulfonic acid sodium] here?
A: 94%

Q: `Cl.NOCC(=O)O.NOCC(=O)O` [Compound 49, O-(Carboxymethyl)hydroxylamine hemihydrochloride] was tested. Which “Compound effect (percent receptor signaling in presence of test compound, relative lux units relative to the SCH23390 control)” value did it give?
A: 97%

Q: For `CCN(CC)CCNC(=O)c1ccc(NC(C)=O)cc1.Cl` [Compound 65, N-Acetylprocainamide hydrochloride], which “Compound effect (percent receptor signaling in presence of test compound, relative lux units relative to the SCH23390 control)” value is on record?
A: 126%
